These results are taken from patent US20240279236A1, “COMPOUNDS AND METHODS OF TREATING TUBERCULOSIS” (Fimbrion Therapeutics, Inc., priority 2021, published 2024).

This experiment deals with WT Mtb Erdman strain. Briefly: Microplate Alamar Blue Assay (MABA), Mtb growth inhibition. The class given is cell-based, Mycobacterium tuberculosis. The note with it: Mycobacterium tuberculosis, ERDMAN, 168 h, Middlebrook 7H9 media, 7 days at 37° C. in 5% CO2. Background: The colour change of resazurin is a common sign of viable cells or microbes.
As to `Cc1cc2c(NCCCc3ccc(-c4cnoc4)cc3)nc(-c3ccoc3)nc2s1` [Example 332, 2-(furan-3-yl)-6-methyl-N-(3-[4-(1,2-oxazol-4-yl)phenyl]propyl) thieno[2,3-d]pyrimidin-4-amine], half-maximal inhibition (IC50) was put at 0.08 µM.
Next, `Cc1cc2c(NCCCc3ccccc3)nc(CCc3ccccc3)nc2s1` [Example 138, 6-methyl-2-phenethyl-N-(3-phenylpropyl)thieno [2,3-d]pyrimidin-4-amine]: greater than 10 µM; `Cc1cc2c(NCCCc3ccc(OC(F)(F)F)cc3)nc(C(=O)NC3CC3)nc2s1` [Example 565, N-cyclopropyl-6-methyl-4-((3-(4-(trifluoromethoxy)phenyl)propyl)amino)thieno[2,3-d]pyrimidine-2-carboxamide]: 4.3 µM.
Turning to `Cc1cc2c(NCC#Cc3ccccc3)nc(C(F)(F)F)nc2s1` [Example 162, 6-methyl-N-(3-phenylprop-2-yn-1-yl)-2-(trifluoromethyl) thieno[2,3-d] pyrimidin-4-amine], the IC50 (commonly the concentration that inhibits the measured activity by half) amounted to 6 µM.
With `Cc1cc2c(NCCCc3ccc(-c4ccc(OC(F)(F)F)cc4)cc3)nc(C3CC3)nc2s1` [Example 452] the figure was 0.076 µM; with `Cc1cc2c(NCCCc3ccccc3O)nc(C(F)(F)F)nc2s1` [Example 589, 2-(3-((6-methyl-2-(trifluoromethyl)thieno[2,3-d]pyrimidin-4-yl)amino)propyl)phenol], greater than 10 µM; with `Cc1cc2c(NCCCc3ccccc3)nc(-c3ccc(Cl)cc3)nc2s1` [Example 90, 2-(4-chlorophenyl)-6-methyl-N-(3-phenylpropyl)thieno [2,3-d]pyrimidin-4-amine], 2 µM.
The compound `COc1nc(N[C@@H]2C[C@H]2c2ccc(F)c(F)c2)c2cc(C)sc2n1` [Example 151, N-((1R,2S)-2-(3,4-difluorophenyl)cyclopropyl)-2-methoxy-6-methylthieno[2,3-d]pyrimidin-4-amine] came in with an IC50 of 0.26 µM.
Compound `Cc1cc2c(NCCCc3ccc(-c4ccc([N+](=O)[O-])cc4)cc3)nc(N(C)C)nc2s1` [Example 314, N2,N2,6-trimethyl-N4-(3-(4′-nitro-[1,1′-biphenyl]-4-yl)propyl)thieno [2,3-d]pyrimidine-2,4-diamine] displayed an IC50 of 0.003 µM.
Consider `CCc1nc(N[C@@H]2C[C@H]2c2ccccc2)c2ccsc2n1` (racemic) [Example 175, 2-ethyl-N-((rac-1R,2S)-2-phenylcyclopropyl) thieno[2,3-d]pyrimidin-4-amine], for which the IC50 was less than 0.24 µM.
With `Cc1cc2c(NCCCc3ccc(-c4ccc(OC(F)(F)F)cc4)cc3)nc(OCC(F)(F)F)nc2s1` [Example 596, 6-methyl-2-(2,2,2-trifluoroethoxy)-N-(3-(4′-(trifluoromethoxy)-[1,1′-biphenyl]-4-yl)propyl)thieno[2,3-d]pyrimidin-4-amine] the figure was 0.029 µM; with `Cc1cc2c(NCCCc3ccc(N(C)C)cc3)nc(C(F)(F)F)nc2s1` [Example 178, N-(3-(4-(dimethylamino)phenyl)propyl)-6-methyl-2-(trifluoromethyl) thieno[2,3-d] pyrimidin-4-amine], 1.3 µM.
With `Cc1cc2c(NCCC(c3ccccc3)c3ccccc3)nc(C(F)(F)F)nc2s1` [Example 160, N-(3,3-diphenylpropyl)-6-methyl-2-(trifluoromethyl) thieno[2,3-d] pyrimidin-4-amine] the figure was 1.1 µM.
Next, `CCc1nc(NCCCc2ccc(-c3cccc(C(=O)NC)c3)cc2)c2cc(C)sc2n1` [Example 284, 4′-(3-((2-ethyl-6-methylthieno[2,3-d]pyrimidin-4-yl)amino)propyl) N-methyl-[1,1′-biphenyl]-3-carboxamide]: 2.9 µM; `Cc1cc2c(NCCCc3ccc(OC(F)(F)F)cc3)nc(N3CCCC3)nc2s1` [Example 506, 6-methyl-2-(pyrrolidin-1-yl)-N-(3-(4-(trifluoromethoxy)phenyl)propyl)thieno[2,3-d]pyrimidin-4-amine]: 0.12 µM.
